{"source": "patent US8921362B2", "about": "“6,7-dialkoxy quinazoline derivatives and methods of treating drug resistant and other tumors” (Natco Pharma Limited, priority 2008, dated 2014)", "experiment_in_all_cases": "KinomeScan", "assay_type_in_all_cases": "binding", "details_in_all_cases": "read-out: % Ctrl @ 10000 nM", "key": {"PAK2": {"biological_target": "T1, PAK2 (Homo sapiens, UniProt Q13177)", "T1 construct": "host or cells: E. coli host derived from BL21, infected with T7 phage", "summary_of_the_method": "(§1)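 An active-site competition format was used, with T7 phage displaying the kinase and affinity beads carrying immobilized ligand. Blocking buffer contained SeaBlock, 1% BSA, 0.05% Tween 20 and 1 mM DTT.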"}, "MEK2": {"biological_target": "T2, MEK2 (Homo sapiens, UniProt P36507)", "T2 construct": "host or cells: E. coli host derived from the BL21 strain, infected with T7 phage", "summary_of_the_method": "as §1"}, "MST3": {"biological_target": "T3, MST3 (Homo sapiens, UniProt Q9Y6E0)", "T3 construct": "host or cells: T7 phage grown in E. coli host derived from BL21", "summary_of_the_method": "as §1"}, "EGFR(L858R)": {"biological_target": "T4, EGFR(L858R) (Homo sapiens, UniProt P00533, L858R)", "T4 construct": "purchased Ambit Biosciences Corp; host or cells: T7 phage in E. coli host derived from BL21", "T4 sequence (P00533 25-1210 L858R)": "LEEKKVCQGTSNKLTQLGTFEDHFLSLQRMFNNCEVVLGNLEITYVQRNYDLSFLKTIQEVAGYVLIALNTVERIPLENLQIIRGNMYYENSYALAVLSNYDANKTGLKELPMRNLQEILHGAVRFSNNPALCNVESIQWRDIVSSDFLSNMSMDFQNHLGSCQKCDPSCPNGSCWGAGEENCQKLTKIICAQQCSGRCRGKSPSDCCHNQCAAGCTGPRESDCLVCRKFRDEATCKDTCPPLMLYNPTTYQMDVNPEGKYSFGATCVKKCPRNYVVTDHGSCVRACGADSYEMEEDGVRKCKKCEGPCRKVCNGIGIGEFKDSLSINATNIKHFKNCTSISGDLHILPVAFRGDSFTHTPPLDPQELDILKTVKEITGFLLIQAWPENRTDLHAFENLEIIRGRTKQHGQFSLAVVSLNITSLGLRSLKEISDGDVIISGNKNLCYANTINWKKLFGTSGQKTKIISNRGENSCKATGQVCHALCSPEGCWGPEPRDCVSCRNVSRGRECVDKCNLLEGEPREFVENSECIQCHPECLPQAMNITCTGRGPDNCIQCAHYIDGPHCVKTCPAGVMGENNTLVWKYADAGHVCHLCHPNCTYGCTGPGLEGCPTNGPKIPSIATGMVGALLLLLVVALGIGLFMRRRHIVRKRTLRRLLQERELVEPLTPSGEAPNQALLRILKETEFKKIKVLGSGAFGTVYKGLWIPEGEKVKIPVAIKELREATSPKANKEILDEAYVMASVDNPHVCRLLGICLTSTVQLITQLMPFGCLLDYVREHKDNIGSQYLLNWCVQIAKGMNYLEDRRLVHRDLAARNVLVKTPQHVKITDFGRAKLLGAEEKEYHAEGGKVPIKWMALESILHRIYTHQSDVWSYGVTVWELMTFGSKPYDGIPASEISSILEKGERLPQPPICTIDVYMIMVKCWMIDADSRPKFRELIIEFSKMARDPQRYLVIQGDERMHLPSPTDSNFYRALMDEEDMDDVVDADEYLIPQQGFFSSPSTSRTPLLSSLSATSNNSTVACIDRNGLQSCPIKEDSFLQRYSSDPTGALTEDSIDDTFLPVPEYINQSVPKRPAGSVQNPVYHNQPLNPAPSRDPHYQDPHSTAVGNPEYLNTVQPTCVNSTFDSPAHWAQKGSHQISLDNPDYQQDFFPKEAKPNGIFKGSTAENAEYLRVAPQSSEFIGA", "summary_of_the_method": "as §1"}, "BLK": {"biological_target": "T5, BLK (Homo sapiens, UniProt P51451)", "T5 construct": "host or cells: E. coli host derived from BL21", "summary_of_the_method": "as §1"}, "EPHA8": {"biological_target": "T6, EPHA8 (Homo sapiens, UniProt P29322)", "T6 construct": "purchased Ambit Biosciences Corp; host or cells: T7 phage in E. coli host derived from BL21", "summary_of_the_method": "as §1"}, "MYO3B": {"biological_target": "T7, MYO3B (Homo sapiens, UniProt Q8WXR4)", "T7 construct": "host or cells: T7 phage grown in E. coli host derived from BL21", "summary_of_the_method": "as §1"}, "DAPK1": {"biological_target": "T8, DAPK1 (Homo sapiens, UniProt P53355)", "T8 construct": "purchased Ambit Biosciences Corp (KinomeScan); host or cells: T7 phage in E. coli host derived from BL21", "summary_of_the_method": "as §1"}, "PLK1": {"biological_target": "T9, PLK1 (Homo sapiens, UniProt P53350)", "T9 construct": "host or cells: T7 phage in E. coli host derived from BL21", "summary_of_the_method": "as §1"}, "MST1": {"biological_target": "T10, MST1 (Homo sapiens, UniProt Q13043)", "T10 construct": "host or cells: T7 phage grown in E. coli host derived from BL21", "summary_of_the_method": "as §1"}, "FLT3(N8411)": {"biological_target": "T11, FLT3(N8411) (Homo sapiens, UniProt P36888, N841I)", "T11 construct": "host or cells: T7 phage in E. coli host derived from BL21", "summary_of_the_method": "as §1"}, "PRKCE": {"biological_target": "T12, PRKCE (Homo sapiens, UniProt Q02156)", "T12 construct": "host or cells: T7 phage in E. coli host derived from BL21", "summary_of_the_method": "as §1"}, "[1]": {"biological_target": "T13, TYK2(JH2domain-pseudokinase) (Homo sapiens, UniProt P29597)", "T13 construct": "TYK2(JH2domain-pseudokinase); host or cells: E. coli host derived from BL21, T7 phage", "T13 sequence (P29597 589-875 limits assumed)": "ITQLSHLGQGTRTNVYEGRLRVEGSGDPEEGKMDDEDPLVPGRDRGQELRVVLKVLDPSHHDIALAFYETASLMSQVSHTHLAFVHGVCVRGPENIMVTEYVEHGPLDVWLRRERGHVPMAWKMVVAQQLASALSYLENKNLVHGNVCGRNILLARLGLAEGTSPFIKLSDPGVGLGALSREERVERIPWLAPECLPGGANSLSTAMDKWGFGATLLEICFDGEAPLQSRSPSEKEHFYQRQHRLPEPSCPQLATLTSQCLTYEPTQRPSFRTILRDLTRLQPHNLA", "summary_of_the_method": "as §1"}, "NLK": {"biological_target": "T14, NLK (Homo sapiens, UniProt Q9UBE8)", "T14 construct": "host or cells: E. coli host derived from BL21, infected with T7 phage", "summary_of_the_method": "as §1"}, "MST4": {"biological_target": "T15, MST4 (Homo sapiens, UniProt Q9P289)", "T15 construct": "host or cells: T7 phage grown in E. coli host derived from BL21", "summary_of_the_method": "as §1"}, "PRKD3": {"biological_target": "T16, PRKD3 (Homo sapiens, UniProt O94806)", "T16 construct": "host or cells: T7 phage in E. coli host derived from BL21", "summary_of_the_method": "as §1"}, "SgK085": {"biological_target": "T17, SgK085 (Homo sapiens, UniProt Q86YV6)", "T17 construct": "host or cells: T7 phage grown in E. coli (BL21-derived)", "summary_of_the_method": "as §1"}, "PKAC-beta": {"biological_target": "T18, PKAC-beta (Homo sapiens, UniProt P22694)", "T18 construct": "host or cells: T7 phage in E. coli host derived from BL21", "summary_of_the_method": "as §1"}, "FLT3(D835Y)": {"biological_target": "T19, FLT3(D835Y) (Homo sapiens, UniProt P36888, D835Y)", "T19 construct": "host or cells: T7 phage in E. coli host derived from BL21", "summary_of_the_method": "as §1"}, "[2]": {"biological_target": "T20, RPS6KA3(Kin.Dom.-1-N-terminal) (Homo sapiens, UniProt P51812)", "T20 construct": "RPS6KA3(Kin.Dom.-1-N-terminal); host or cells: E. coli host derived from BL21, T7 phage display", "summary_of_the_method": "as §1"}, "CAMK2G": {"biological_target": "T21, CAMK2G (Homo sapiens, UniProt Q13555)", "T21 construct": "host or cells: E. coli host derived from BL21", "summary_of_the_method": "as §1"}, "SRC": {"biological_target": "T22, SRC (Homo sapiens, UniProt P12931)", "T22 construct": "host or cells: T7 phage grown in E. coli (BL21-derived)", "summary_of_the_method": "as §1"}, "PKAC-alpha": {"biological_target": "T23, PKAC-alpha (Homo sapiens, UniProt P17612)", "T23 construct": "host or cells: T7 phage in E. coli host derived from BL21", "summary_of_the_method": "as §1"}, "ACVR1": {"biological_target": "T24, ACVR1 (Homo sapiens, UniProt Q04771)", "T24 construct": "host or cells: E. coli (BL21-derived), T7 phage lysate", "T24 sequence (Q04771 21-509)": "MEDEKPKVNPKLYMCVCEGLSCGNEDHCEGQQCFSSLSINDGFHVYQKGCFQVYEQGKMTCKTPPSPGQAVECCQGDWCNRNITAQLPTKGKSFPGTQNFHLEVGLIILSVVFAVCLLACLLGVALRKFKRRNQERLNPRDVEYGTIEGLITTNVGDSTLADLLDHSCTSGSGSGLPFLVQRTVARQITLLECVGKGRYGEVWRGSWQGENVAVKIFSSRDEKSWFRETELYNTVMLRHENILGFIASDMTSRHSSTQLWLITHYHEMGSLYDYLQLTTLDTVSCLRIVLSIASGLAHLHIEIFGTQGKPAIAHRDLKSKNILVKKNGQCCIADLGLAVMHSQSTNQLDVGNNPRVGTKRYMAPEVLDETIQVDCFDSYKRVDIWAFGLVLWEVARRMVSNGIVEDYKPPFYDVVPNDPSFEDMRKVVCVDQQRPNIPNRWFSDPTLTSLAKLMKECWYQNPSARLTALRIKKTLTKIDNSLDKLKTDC", "summary_of_the_method": "as §1"}, "RET(V804L)": {"biological_target": "T25, RET(V804L) (Homo sapiens, UniProt P07949, V804L)", "T25 construct": "host or cells: E. coli host derived from BL21, T7 phage display", "T25 sequence (P07949 29-1114 V804L)": "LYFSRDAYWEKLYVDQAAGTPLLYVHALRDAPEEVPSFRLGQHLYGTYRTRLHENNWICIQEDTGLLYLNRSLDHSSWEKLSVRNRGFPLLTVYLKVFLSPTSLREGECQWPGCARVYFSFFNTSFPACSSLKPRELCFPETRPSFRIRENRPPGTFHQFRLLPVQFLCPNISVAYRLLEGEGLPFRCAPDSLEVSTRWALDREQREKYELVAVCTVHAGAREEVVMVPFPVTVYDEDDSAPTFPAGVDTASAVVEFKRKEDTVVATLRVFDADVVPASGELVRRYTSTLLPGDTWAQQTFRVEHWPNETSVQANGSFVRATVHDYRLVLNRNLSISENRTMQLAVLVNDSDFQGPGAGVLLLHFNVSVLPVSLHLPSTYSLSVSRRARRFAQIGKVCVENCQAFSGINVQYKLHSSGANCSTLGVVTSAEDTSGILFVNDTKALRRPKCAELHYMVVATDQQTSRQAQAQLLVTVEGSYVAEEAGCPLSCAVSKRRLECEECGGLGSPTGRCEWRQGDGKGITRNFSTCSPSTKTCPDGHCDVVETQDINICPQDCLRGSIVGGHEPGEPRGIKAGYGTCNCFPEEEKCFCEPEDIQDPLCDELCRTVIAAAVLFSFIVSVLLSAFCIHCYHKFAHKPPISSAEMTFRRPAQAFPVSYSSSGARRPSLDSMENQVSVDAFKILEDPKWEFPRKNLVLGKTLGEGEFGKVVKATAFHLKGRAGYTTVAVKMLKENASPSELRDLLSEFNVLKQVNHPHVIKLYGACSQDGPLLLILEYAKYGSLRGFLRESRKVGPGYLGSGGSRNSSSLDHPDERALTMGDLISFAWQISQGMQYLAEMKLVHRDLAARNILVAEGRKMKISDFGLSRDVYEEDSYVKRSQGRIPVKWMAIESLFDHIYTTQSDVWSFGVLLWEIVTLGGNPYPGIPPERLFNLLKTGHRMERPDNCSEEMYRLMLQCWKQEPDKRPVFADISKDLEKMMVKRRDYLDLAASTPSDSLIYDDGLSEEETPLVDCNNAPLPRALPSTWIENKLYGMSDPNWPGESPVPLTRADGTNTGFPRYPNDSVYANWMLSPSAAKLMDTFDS", "summary_of_the_method": "as §1"}, "EPHA1": {"biological_target": "T26, EPHA1 (Homo sapiens, UniProt P21709)", "T26 construct": "purchased Ambit Biosciences Corp; host or cells: T7 phage in E. coli host derived from BL21", "T26 sequence (P21709 26-976)": "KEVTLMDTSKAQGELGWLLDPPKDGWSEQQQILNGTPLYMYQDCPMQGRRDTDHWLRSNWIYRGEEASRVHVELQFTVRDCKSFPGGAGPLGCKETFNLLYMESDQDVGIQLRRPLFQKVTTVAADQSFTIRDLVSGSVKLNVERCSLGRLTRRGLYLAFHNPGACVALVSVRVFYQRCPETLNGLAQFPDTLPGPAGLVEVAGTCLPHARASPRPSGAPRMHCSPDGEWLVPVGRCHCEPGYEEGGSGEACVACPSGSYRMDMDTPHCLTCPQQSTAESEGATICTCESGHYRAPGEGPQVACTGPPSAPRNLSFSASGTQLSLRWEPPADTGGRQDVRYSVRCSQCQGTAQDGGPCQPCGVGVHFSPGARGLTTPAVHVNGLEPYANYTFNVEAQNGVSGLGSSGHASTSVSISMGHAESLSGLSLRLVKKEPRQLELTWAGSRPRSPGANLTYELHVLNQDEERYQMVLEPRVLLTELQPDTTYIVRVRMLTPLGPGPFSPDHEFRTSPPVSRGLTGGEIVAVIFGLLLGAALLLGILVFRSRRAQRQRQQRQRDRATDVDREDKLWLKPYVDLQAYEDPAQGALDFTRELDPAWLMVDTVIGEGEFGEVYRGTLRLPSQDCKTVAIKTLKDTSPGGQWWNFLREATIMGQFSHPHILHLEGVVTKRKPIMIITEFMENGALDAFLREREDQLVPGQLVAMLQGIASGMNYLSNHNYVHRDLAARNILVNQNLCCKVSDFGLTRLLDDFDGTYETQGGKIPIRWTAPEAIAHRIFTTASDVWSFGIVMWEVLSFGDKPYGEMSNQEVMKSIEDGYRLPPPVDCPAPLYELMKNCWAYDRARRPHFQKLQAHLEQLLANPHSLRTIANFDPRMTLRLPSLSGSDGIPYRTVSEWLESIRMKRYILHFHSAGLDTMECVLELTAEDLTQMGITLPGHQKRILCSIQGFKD", "summary_of_the_method": "as §1"}, "JNK3": {"biological_target": "T27, JNK3 (Homo sapiens, UniProt P53779)", "T27 construct": "host or cells: T7 phage grown in E. coli host derived from BL21", "summary_of_the_method": "as §1"}, "BMPR2": {"biological_target": "T28, BMPR2 (Homo sapiens, UniProt Q13873)", "T28 construct": "host or cells: E. coli host derived from BL21", "T28 sequence (Q13873 27-1038)": "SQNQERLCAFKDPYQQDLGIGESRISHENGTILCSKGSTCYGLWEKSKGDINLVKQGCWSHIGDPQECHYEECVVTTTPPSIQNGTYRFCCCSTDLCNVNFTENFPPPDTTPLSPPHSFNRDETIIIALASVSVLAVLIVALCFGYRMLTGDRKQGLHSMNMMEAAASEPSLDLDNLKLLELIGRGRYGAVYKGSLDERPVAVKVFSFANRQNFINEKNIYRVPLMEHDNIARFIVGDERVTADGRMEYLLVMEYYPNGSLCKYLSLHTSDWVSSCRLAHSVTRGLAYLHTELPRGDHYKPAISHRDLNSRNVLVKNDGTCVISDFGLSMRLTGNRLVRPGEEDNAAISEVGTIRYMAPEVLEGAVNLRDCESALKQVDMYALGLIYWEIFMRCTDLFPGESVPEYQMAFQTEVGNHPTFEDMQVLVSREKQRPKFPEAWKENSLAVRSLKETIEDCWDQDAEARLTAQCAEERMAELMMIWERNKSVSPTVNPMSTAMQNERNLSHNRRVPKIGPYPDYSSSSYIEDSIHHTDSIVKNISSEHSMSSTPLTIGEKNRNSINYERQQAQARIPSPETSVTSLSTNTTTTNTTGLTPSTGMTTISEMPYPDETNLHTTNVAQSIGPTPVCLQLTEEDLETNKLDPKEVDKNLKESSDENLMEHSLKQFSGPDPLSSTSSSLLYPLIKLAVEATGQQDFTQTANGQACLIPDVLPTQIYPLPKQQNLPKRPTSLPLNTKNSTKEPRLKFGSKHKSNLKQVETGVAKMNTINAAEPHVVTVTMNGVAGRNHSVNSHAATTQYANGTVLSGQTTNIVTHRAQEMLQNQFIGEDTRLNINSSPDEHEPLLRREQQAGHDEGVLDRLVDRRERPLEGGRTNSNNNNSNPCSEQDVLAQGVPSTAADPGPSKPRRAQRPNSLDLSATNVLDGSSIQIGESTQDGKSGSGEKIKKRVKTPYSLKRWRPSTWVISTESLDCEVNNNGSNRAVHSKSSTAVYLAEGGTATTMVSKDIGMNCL", "summary_of_the_method": "as §1"}, "[3]": {"biological_target": "T29, EGFR(L747-S752del, P753S) (Homo sapiens, UniProt P00533, DEL747-752/P753S)", "T29 construct": "purchased Ambit Biosciences Corp (KinomeScan); host or cells: T7 phage in E. coli host derived from BL21", "summary_of_the_method": "as §1"}, "DLK": {"biological_target": "T30, DLK (Homo sapiens, UniProt Q12852)", "T30 construct": "purchased Ambit Biosciences Corp (KinomeScan); host or cells: T7 phage in E. coli host derived from BL21", "summary_of_the_method": "as §1"}, "MEK3": {"biological_target": "T31, MEK3 (Homo sapiens, UniProt P46734)", "T31 construct": "host or cells: E. coli host derived from the BL21 strain, infected with T7 phage", "summary_of_the_method": "as §1"}, "MINK": {"biological_target": "T32, MINK (Homo sapiens, UniProt Q8N4C8)", "T32 construct": "host or cells: E. coli host derived from the BL21 strain, infected with T7 phage", "summary_of_the_method": "as §1"}}, "data": [{"smiles": "C#Cc1cccc(Nc2ncnc3cc(OC)c(OCCCN4CCOCC4)cc23)c1", "note": "[NRC-2694, N-(3-ethynylphenyl)-7-methoxy-6-[3-(4-morpholinyl)propoxy]-4-quinazolinamine]", "values": [{"measurement": "remaining binding at 10 µM", "setting": "PAK2", "value": 67, "unit": "%"}, {"measurement": "remaining binding at 10 µM", "setting": "MEK2", "value": 44, "unit": "%"}, {"measurement": "remaining binding at 10 µM", "setting": "MST3", "value": 42, "unit": "%"}, {"measurement": "remaining binding at 10 µM", "setting": "EGFR(L858R)", "value": 0, "unit": "%"}, {"measurement": "remaining binding at 10 µM", "setting": "BLK", "value": 4.4, "unit": "%"}, {"measurement": "remaining binding at 10 µM", "setting": "EPHA8", "value": 66, "unit": "%"}, {"measurement": "remaining binding at 10 µM", "setting": "MYO3B", "value": 100, "unit": "%"}, {"measurement": "remaining binding at 10 µM", "setting": "DAPK1", "value": 26, "unit": "%"}, {"measurement": "remaining binding at 10 µM", "setting": "PLK1", "value": 81, "unit": "%"}, {"measurement": "remaining binding at 10 µM", "setting": "MST1", "value": 100, "unit": "%"}, {"measurement": "remaining binding at 10 µM", "setting": "FLT3(N8411)", "value": 16, "unit": "%"}, {"measurement": "remaining binding at 10 µM", "setting": "PRKCE", "value": 65, "unit": "%"}, {"measurement": "remaining binding at 10 µM", "setting": "[1]", "value": 23, "unit": "%"}, {"measurement": "remaining binding at 10 µM", "setting": "NLK", "value": 55, "unit": "%"}, {"measurement": "remaining binding at 10 µM", "setting": "MST4", "value": 29, "unit": "%"}, {"measurement": "remaining binding at 10 µM", "setting": "PRKD3", "value": 7.2, "unit": "%"}, {"measurement": "remaining binding at 10 µM", "setting": "SgK085", "value": 84, "unit": "%"}, {"measurement": "remaining binding at 10 µM", "setting": "PKAC-beta", "value": 88, "unit": "%"}, {"measurement": "remaining binding at 10 µM", "setting": "FLT3(D835Y)", "value": 9.4, "unit": "%"}, {"measurement": "remaining binding at 10 µM", "setting": "[2]", "value": 94, "unit": "%"}, {"measurement": "remaining binding at 10 µM", "setting": "CAMK2G", "value": 58, "unit": "%"}, {"measurement": "remaining binding at 10 µM", "setting": "SRC", "value": 24, "unit": "%"}, {"measurement": "remaining binding at 10 µM", "setting": "PKAC-alpha", "value": 100, "unit": "%"}, {"measurement": "remaining binding at 10 µM", "setting": "ACVR1", "value": 61, "unit": "%"}, {"measurement": "remaining binding at 10 µM", "setting": "RET(V804L)", "value": 81, "unit": "%"}, {"measurement": "remaining binding at 10 µM", "setting": "EPHA1", "value": 55, "unit": "%"}, {"measurement": "remaining binding at 10 µM", "setting": "JNK3", "value": 77, "unit": "%"}, {"measurement": "remaining binding at 10 µM", "setting": "BMPR2", "value": 100, "unit": "%"}, {"measurement": "remaining binding at 10 µM", "setting": "[3]", "value": 0.1, "unit": "%"}, {"measurement": "remaining binding at 10 µM", "setting": "DLK", "value": 92, "unit": "%"}, {"measurement": "remaining binding at 10 µM", "setting": "MEK3", "value": 100, "unit": "%"}, {"measurement": "remaining binding at 10 µM", "setting": "MINK", "value": 16, "unit": "%"}]}]}
